Source: patent publication US8709406B2, “Prevention and treatment of oxidative stress disorders by gluthathione and phase II detoxification enzymes” (Brassica Foundation for ChemoProtection Research, priority 2001, dated 2014)

Columns and labels:
HaCaT cells = assay: tert-Butyl hydroperoxide cytotoxicity (MTT, median effect analysis) and protection by sulforaphane; format: cell-based, human; conditions: tert-butyl hydroperoxide 8 h
Experimental: Mouse L1210 leukemia cells, a gift from Dr. Joseph G. Cory, East Carolina State University, Greenville, N.C., were grown in RPMI 1640 medium supplemented with 10% horse serum. All cultures were incubated in a humidified atmosphere of 5% CO2 at 37° C. Media and sera were obtained from Life Technologies (Rockville, Md.).
All experiments were performed in 96-well microliter plates. ARPE-19 and HaCaT cells were seeded at 10,000 cells per well and grown for 24 h before addition of sulforaphane, whereas L1210 cells (5,000 cells/well) were not incubated before sulforaphane treatment. Solutions of sulforaphane (5 mM) in dimethyl sulfoxide were diluted with the cognate culture medium to provide final inducer concentrations of 0.16-5.0 μM. The final DMSO concentrations were 0.1% by volume.
(§1) Cell viability was determined by spectroscopic measurement of the reduction of MTT (Carmichael, J., DeGraff, W. G., Gazdar, A. F., Minna, J. D. & Mitchell, J. B. (1987) Cancer Res. 47, 936-942). The culture media were discarded after the designated incubation periods, the cells were washed three times with PBS by use of a microtiter plate washer (Ultrawash Plus, Dynex Technologies, Chantilly, Va.). Each well then received 150 μl of an MTT solution (0.5 mg/ml) in serum-free medium. The plates were incubated for 2 h at 37° C., the MTT solution was discarded, 100 μl of DMSO were added to each well, and the plates were shaken at 200 rpm on an orbital shaker for 5 min. The absorbances of the wells were determined at 555 nm with a microtiter plate reader (Spectra Max Plus, Molecular Devices, Sunnyvale, Calif.). The absorbance of reduced MIT was then compared at each inducer and oxidant concentration to that of untreated control cells that received only the vehicle in which sulforaphane (DMSO) and menadione (DMSO or PBS) were dissolved. In each experiment three identical 96-well plates were used and the means of the absorbance values, the standard deviations of these means, and their coefficients of variation were calculated.
Dose-effect analyses were performed according to the Median Effect Equation, by use of a computer program (Chou, T. C. & Hayball, M. (1996) CalcuSyn for Windows 3.1 and 95: multiple dose effect analyzer and manual for IBM-PC, Biosoft, Cambridge, U.K). The equation: fa/fu=[D/Dm]^m, where fa is the fraction of cells affected by the oxidant, fu is the fraction unaffected (i.e., 1-fa), D is the dose of oxidant required to produce the effect fa, Dm is the concentration of oxidant required to produce a 50% effect, i.e., when fa=fu, and the slope m is a measure of the sigmoidicity of the dose-response curve, and is therefore a measure of cooperativity. The results are analyzed by plotting log(fa/fu) with respect to log D of the oxidant. The computer program provides the slope (m) of the curves, and the goodness of fit (r^2) to linearity.

quinone reductase = conditions: ARPE-19
Experimental: (§2) Cells were lysed by addition of a digitonin solution (0.8 mg/ml digitonin in 2 mM EDTA, pH 7.8), incubated at 37° C. for 20 min, gently shaken for 20 min at 25° C., and centrifuged at 1,500×g for 20 min at 4° C.
(§3) All measurements were made in 96-well microtiter plates at 25° C., and reaction rates were monitored with a microtiter plate reader. The QR activities of supernatant fractions were determined by procedures developed in our laboratory (Fahey, J. W., Zhang, Y. & Talalay, P. (1997) Proc. Natl. Acad. Sci. USA 94, 10367-10372; Prochaska, H. J., Santamaria, A. B. & Talalay, P. (1992) Proc. Natl. Acad. Sci. USA 89, 2394-2398.). Specific activities were obtained by relating the reaction rates to protein concentrations determined with the bicinchoninic acid reagent (Smith, P. K., Krohn, R. I., Hermanson, G. T., Mallia, A. K., Gratner, F. H., Provenzano, M. D., Fujimoto, E. K., Goeke, N. M., Olson, B. J. & Klenk, D. C. (1985) Anal. Biochem. 150, 76-85). […] Glutathione reductase activity was assayed by mixing 50 μl of cell lysate with 25 μl of 1 mM NADPH, 25 μl of GSSG (20 mg/ml), and 150 μl of 50 mM sodium phosphate, pH 7.5. Initial reaction rates were obtained at 340 nm (Carlberg, I. & Mannervik, B. (1985) Methods Enzymol. 113, 484-490).

glutathione reductase = conditions: ARPE-19; sulforaphane 0.625 and 2.5 μM 24 h, then medium without inducer
Experimental: as §2, §3

[1] = test system: Retina Pigment Epithelium Cell; assay: Photooxidative damage by all-trans-retinal and 365 nm light, protection by sulforaphane (cell survival); format: cell-based, human
Experimental: There is accumulating evidence that chronic exposure to sunlight plays a role in some degenerative diseases, for instance, age-related macular degeneration (AMD). We have, therefore, carried out an experiment of protection of human RPE cells against photooxidative damage mediated by all-trans-retinal, which exists in human retina and is a critical component of the visual cycle.
as §1
To examine the protective effect of sulforaphane against photooxidative damage mediated by all-trans-retinal and light exposure, the cells were treated with 0-100 μM of all-trans-retinal for 2 hours and light exposure at 365 nm for 20 min after incubation with 0-5 μM of sulforaphane for 24 hours.

[2] = after sulforaphane 0.63 μM 24 h
[3] = after sulforaphane 1.25 μM 24 h
[4] = after sulforaphane 2.50 μM 24 h

For `C[S+]([O-])CCCCN=C=S` (stereo not drawn) [Sulforaphane], which “Dm (median effect concentration) of tert-butyl hydroperoxide” value (shortened to “Dm (median effect concentration)”) (HaCaT cells; [2]) is on record?
Its value is 113 µM.

And the “m (slope of median effect plot) for tert-butyl hydroperoxide” value (from here on “m (slope of median effect plot)”) (HaCaT cells; [2])?
The value was 0.894.

What about the “Dm (median effect concentration)” value (HaCaT cells; [3]) of the same compound?
Its value is 166 µM.

What about the “m (slope of median effect plot)” value (HaCaT cells; [3]) of the same compound?
The value was 0.921.

And the “Dm (median effect concentration)” value (HaCaT cells; [4])?
Its value is 200 µM.

And the “m (slope of median effect plot)” value (HaCaT cells; [4])?
Its value is 0.768.

What about the “specific activities of QR in cytosols” value (quinone reductase; sulforaphane 0-5.0 μM 24 h) of the same compound?
Its value is “rose with exposure to increasing concentrations of sulforaphane”.

And the “specific activity of QR after removal of sulforaphane” value (quinone reductase; sulforaphane 0.625 and 2.5 μM 24 h, then medium without inducer)?
Its value is “continued to rise for 48 h after removal of sulforaphane”.

What about the “specific activity of glutathione reductase after removal of sulforaphane” value (glutathione reductase) of the same compound?
The value was “continued to rise for 48 h after removal of sulforaphane”.

What about the Survival ([1]; 365 nm light, all-trans-retinal 0 μM, sulforaphane 1.25 μM 24 h) of the same compound?
The Survival was 100.0%.

What about the Survival ([1]; 365 nm light, all-trans-retinal 0 μM, sulforaphane 2.50 μM 24 h) of the same compound?
The Survival was 100.6%.

And the Survival ([1]; 365 nm light, all-trans-retinal 0 μM, sulforaphane 5.00 μM 24 h)?
Its Survival is 100.4%.

What about the Survival ([1]; 365 nm light, all-trans-retinal 12.5 μM, sulforaphane 1.25 μM 24 h) of the same compound?
Its Survival is 95.4%.

And the Survival ([1]; 365 nm light, all-trans-retinal 12.5 μM, sulforaphane 2.50 μM 24 h)?
The Survival was 96.5%.

What about the Survival ([1]; 365 nm light, all-trans-retinal 12.5 μM, sulforaphane 5.00 μM 24 h) of the same compound?
Its Survival is 103.4%.

What about the Survival ([1]; 365 nm light, all-trans-retinal 25 μM, sulforaphane 1.25 μM 24 h) of the same compound?
The Survival was 54.4%.

And the Survival ([1]; 365 nm light, all-trans-retinal 25 μM, sulforaphane 2.50 μM 24 h)?
The Survival was 63.8%.

And the Survival ([1]; 365 nm light, all-trans-retinal 25 μM, sulforaphane 5.00 μM 24 h)?
Its Survival is 72.2%.

What about the Survival ([1]; 365 nm light, all-trans-retinal 50 μM, sulforaphane 1.25 μM 24 h) of the same compound?
Its Survival is 11.7%.

And the Survival ([1]; 365 nm light, all-trans-retinal 50 μM, sulforaphane 2.50 μM 24 h)?
The Survival was 15.2%.

And the Survival ([1]; 365 nm light, all-trans-retinal 50 μM, sulforaphane 5.00 μM 24 h)?
The Survival was 27.4%.

And the Survival ([1]; 365 nm light, all-trans-retinal 100 μM, sulforaphane 1.25 μM 24 h)?
Its Survival is 3.4%.

And the Survival ([1]; 365 nm light, all-trans-retinal 100 μM, sulforaphane 2.50 μM 24 h)?
The Survival was 5.2%.

And the Survival ([1]; 365 nm light, all-trans-retinal 100 μM, sulforaphane 5.00 μM 24 h)?
The Survival was 8.2%.

And the Survival ([1]; 365 nm light, column Control, sulforaphane 1.25 μM 24 h)?
Its Survival is 100.7%.

And the Survival ([1]; 365 nm light, column Control, sulforaphane 2.50 μM 24 h)?
Its Survival is 97.4%.

What about the Survival ([1]; 365 nm light, column Control, sulforaphane 5.00 μM 24 h) of the same compound?
The Survival was 101.4%.

What about the Survival ([1]; in dark, all-trans-retinal 0 μM, sulforaphane 1.25 μM 24 h) of the same compound?
Its Survival is 96.6%.

What about the Survival ([1]; in dark, all-trans-retinal 0 μM, sulforaphane 2.50 μM 24 h) of the same compound?
The Survival was 99.4%.

And the Survival ([1]; in dark, all-trans-retinal 0 μM, sulforaphane 5.00 μM 24 h)?
The Survival was 103.1%.

What about the Survival ([1]; in dark, all-trans-retinal 12.5 μM, sulforaphane 1.25 μM 24 h) of the same compound?
The Survival was 96.3%.

What about the Survival ([1]; in dark, all-trans-retinal 12.5 μM, sulforaphane 2.50 μM 24 h) of the same compound?
Its Survival is 101.5%.

What about the Survival ([1]; in dark, all-trans-retinal 12.5 μM, sulforaphane 5.00 μM 24 h) of the same compound?
Its Survival is 104.6%.

What about the Survival ([1]; in dark, all-trans-retinal 25 μM, sulforaphane 1.25 μM 24 h) of the same compound?
The Survival was 97.7%.

What about the Survival ([1]; in dark, all-trans-retinal 25 μM, sulforaphane 2.50 μM 24 h) of the same compound?
Its Survival is 98.3%.

What about the Survival ([1]; in dark, all-trans-retinal 25 μM, sulforaphane 5.00 μM 24 h) of the same compound?
The Survival was 104.8%.

And the Survival ([1]; in dark, all-trans-retinal 50 μM, sulforaphane 1.25 μM 24 h)?
Its Survival is 98.4%.

What about the Survival ([1]; in dark, all-trans-retinal 50 μM, sulforaphane 2.50 μM 24 h) of the same compound?
Its Survival is 99.9%.

What about the Survival ([1]; in dark, all-trans-retinal 50 μM, sulforaphane 5.00 μM 24 h) of the same compound?
The Survival was 106.8%.

What about the Survival ([1]; in dark, all-trans-retinal 100 μM, sulforaphane 1.25 μM 24 h) of the same compound?
The Survival was 74.7%.

What about the Survival ([1]; in dark, all-trans-retinal 100 μM, sulforaphane 2.50 μM 24 h) of the same compound?
The Survival was 75.6%.

What about the Survival ([1]; in dark, all-trans-retinal 100 μM, sulforaphane 5.00 μM 24 h) of the same compound?
The Survival was 84.6%.

And the Survival ([1]; in dark, column Control, sulforaphane 1.25 μM 24 h)?
The Survival was 96.7%.

What about the Survival ([1]; in dark, column Control, sulforaphane 2.50 μM 24 h) of the same compound?
Its Survival is 99.5%.

And the Survival ([1]; in dark, column Control, sulforaphane 5.00 μM 24 h)?
The Survival was 105.6%.
